Publication PMC7012919, “TRPM7 contributes to progressive nephropathy” (Scientific Reports, 2020)

Biological target: TRPM7 (Rattus norvegicus, UniProt Q925B3)
Test: whole-cell patch clamp of endogenous TRPM7 currents in NRK-52E and NRK-49F cells ([…] complete block); IC50 from Fura-2 Mn2+ quench in NRK-52E cells
Format: cell-based

TRPM7, sequence (Q925B3 whole entry): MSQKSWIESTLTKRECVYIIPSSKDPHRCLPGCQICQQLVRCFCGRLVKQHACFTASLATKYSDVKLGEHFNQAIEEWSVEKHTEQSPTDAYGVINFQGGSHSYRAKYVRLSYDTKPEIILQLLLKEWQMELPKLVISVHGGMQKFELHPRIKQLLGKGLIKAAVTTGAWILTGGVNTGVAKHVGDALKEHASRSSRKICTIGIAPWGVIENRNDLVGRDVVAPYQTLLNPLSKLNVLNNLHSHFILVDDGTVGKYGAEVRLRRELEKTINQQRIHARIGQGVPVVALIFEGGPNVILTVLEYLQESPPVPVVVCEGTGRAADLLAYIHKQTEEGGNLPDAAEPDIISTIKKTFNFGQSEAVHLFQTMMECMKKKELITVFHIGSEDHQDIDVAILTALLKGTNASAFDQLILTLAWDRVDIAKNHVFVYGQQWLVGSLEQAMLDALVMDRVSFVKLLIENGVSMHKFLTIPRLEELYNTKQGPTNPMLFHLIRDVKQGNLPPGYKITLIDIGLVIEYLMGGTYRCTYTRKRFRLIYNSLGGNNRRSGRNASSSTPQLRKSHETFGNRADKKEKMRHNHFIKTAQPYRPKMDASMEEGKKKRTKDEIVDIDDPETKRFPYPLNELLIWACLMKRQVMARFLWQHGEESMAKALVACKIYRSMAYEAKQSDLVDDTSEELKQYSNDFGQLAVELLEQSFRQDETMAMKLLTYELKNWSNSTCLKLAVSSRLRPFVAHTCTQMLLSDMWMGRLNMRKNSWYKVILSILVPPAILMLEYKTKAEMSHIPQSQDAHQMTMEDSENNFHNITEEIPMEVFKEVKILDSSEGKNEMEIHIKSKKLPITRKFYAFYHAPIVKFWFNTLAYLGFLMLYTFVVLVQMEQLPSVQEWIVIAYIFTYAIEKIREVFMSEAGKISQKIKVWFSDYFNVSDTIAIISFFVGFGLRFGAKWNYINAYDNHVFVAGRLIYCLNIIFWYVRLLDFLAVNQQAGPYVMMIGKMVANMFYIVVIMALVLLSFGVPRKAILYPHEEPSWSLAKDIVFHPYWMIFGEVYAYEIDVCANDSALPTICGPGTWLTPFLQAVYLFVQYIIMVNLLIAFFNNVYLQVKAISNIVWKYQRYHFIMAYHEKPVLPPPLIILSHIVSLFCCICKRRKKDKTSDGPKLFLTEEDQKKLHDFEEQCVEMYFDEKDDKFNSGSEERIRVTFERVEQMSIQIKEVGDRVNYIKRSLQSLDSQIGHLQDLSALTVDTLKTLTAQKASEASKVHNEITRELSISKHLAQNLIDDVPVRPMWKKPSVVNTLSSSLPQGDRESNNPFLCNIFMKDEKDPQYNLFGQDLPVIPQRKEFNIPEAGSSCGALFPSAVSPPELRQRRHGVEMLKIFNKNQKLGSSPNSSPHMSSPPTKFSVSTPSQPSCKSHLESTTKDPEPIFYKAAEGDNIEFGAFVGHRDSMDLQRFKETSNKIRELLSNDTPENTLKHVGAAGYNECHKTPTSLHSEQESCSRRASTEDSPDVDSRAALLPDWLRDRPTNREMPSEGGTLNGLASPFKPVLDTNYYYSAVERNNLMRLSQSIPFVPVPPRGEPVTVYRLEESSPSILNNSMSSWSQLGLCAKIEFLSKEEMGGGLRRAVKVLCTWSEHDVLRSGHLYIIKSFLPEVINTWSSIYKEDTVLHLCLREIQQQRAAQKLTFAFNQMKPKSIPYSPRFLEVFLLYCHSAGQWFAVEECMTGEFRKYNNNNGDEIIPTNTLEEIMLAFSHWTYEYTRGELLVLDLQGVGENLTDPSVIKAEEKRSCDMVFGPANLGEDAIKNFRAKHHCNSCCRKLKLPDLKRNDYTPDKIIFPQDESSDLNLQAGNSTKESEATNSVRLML

With `c1ccc2c(c1)CCC[C@H]2Nc1nc2ccccc2[nH]1` [NS8593] the IC50 was 16 ± 3 µM.
